Marks after values point to notes of the source that are not given here.
Assays:
[1] = tested on: Imiquimod-induced psoriasis mouse model; test: Imiquimod (IMQ)-induced acute model of psoriasis in mouse: skin thickness, erythema, scaling; type: in vivo, mouse (Balb/c)
Procedure: Material and methods for the IMQ study were adapted from van der Fits et al. J Immunol., 2009, 182: 5836-5845. Eight week old male Balb/c mice (Harlan) received a daily topical dose of 62.5 mg 5% IMQ cream (Aldara™, Medicis) equivalent to 3.125 mg IMQ, on the shaved back (approximately 2×3.5 cm patch) and dorsal surface of the right ear for 6 consecutive days. Sham control mice were treated similarly with control cream (Hydrous Emulsified Base, HEB, Cream, Fagron). Treatments were administered by group as indicated in Table 1 below prior to daily application of IMQ (QD and morning dose of BID regimens), n=10 for all groups. […] Body weights and scoring of induced clinical disease were performed after dosing (Days 1-7) but prior to IMQ application (Days 1-6) on Days 1 (baseline), 3, 4, 6, 8. Mice were sacrificed on Day 8 and treated back skin tissue collected and divided for fixation for histopathology (a 12 mm punch in mid-back) the remainder flash frozen; right (IMQ) and left (control) ears, spleen (after wet weight) and lung were also individually collected and flash frozen, and stored at −70° C. for subsequent biochemical analyses. Statistics were performed using one-way ANOVA with Dunnett's post-hoc test comparing treated groups to the vehicle group, using InStat software (GraphPad, La Jolla, Calif.).
The severity of clinical disease was assessed by
1) skin thickness dial gauge micrometer measurements (duplicate) of the ears and the dorsal skin at the midline of the back (equal to double true measure of dorsal skin thickness)
2) erythema and scaling, independently scored on a scale from 0-4: 0=none, 1=slight, 2=moderate, 3=marked, 4=very marked with intermediate increments of 0.5 allowed.
Clinical disease assessments included erythema, scaling, skin thickness and cumulative disease severity scores and the change in skin thickness of the ears and dorsal back skin over time compared to baseline measurements (Tables 19 and 20). Body weights of the mice were measured at baseline and at end of study, and there were no significant changes in weight in any treatment group during the study (data not shown).

BAZ2B = target: T1, BAZ2B (Homo sapiens, UniProt Q9UIF8); test: Bromodomain binding assay: BAZ2B
T1 construct: T7 phage strains displaying bromodomains were grown in parallel; made in house; host or cells: E. coli host derived from BL21, infected with T7 phage
Procedure: (§1) T7 phage strains displaying bromodomains were grown in parallel in 24-well blocks in an E. coli host derived from the BL21 strain. E. coli were grown to log-phase and infected with T7 phage from a frozen stock (multiplicity of infection=0.4) and incubated with shaking at 32° C. until lysis (90-150 minutes). The lysates were centrifuged (5,000×g) and filtered (0.2 μm) to remove cell debris. […] The liganded beads were blocked with excess biotin and washed with blocking buffer (SeaBlock (Pierce), 1% BSA, 0.05 Tween 20, 1 mM DTT) to remove unbound ligand and to reduce non-specific phage binding. […] Test compounds (T62 and 46) were prepared as 1000× stocks in 100% DMSO and subsequently diluted 1:10 in monoethylene glycol (MEG) to create stocks at 100× the screening concentration (resulting stock solution is 10% DMSO/90% MEG). The compounds were then diluted directly into the assays such that the final concentration of DMSO and MEG were 0.1% and 0.9%, respectively. All reactions were performed in polystyrene 96-well plates in a final volume of 0.135 ml. […] The bromodomain concentration in the eluates was measured by qPCR. Compounds were assayed for binding activity against a panel of 40 bromodomain-containing proteins.

SMARCA4 = target: T2, SMARCA4 (Homo sapiens, UniProt P51532); test: Bromodomain binding assay: SMARCA4
T2 construct: made in house; host or cells: E. coli host derived from the BL21 strain (T7 phage lysate)
Procedure: as §1

BRD9 = target: T3, BRD9 (Homo sapiens, UniProt Q9H8M2); test: Bromodomain binding assay: BRD9
T3 construct: T7 phage strains displaying bromodomains were grown in parallel; made in house; host or cells: E. coli host derived from BL21, infected with T7 phage
Procedure: as §1

T1 sequence (Q9UIF8 2060-2164 limits assumed, species assumed): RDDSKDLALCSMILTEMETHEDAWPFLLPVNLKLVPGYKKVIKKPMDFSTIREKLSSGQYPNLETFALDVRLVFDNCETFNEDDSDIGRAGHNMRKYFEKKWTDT
T2 sequence (P51532 1453-1564 limits assumed): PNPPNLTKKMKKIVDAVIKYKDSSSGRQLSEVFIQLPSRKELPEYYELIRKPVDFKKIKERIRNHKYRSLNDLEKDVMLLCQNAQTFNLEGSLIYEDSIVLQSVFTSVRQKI
T3 sequence (Q9H8M2 136-240 limits assumed, species assumed): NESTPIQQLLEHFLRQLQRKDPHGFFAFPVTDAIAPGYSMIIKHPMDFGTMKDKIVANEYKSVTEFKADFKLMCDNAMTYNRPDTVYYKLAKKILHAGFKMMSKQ

CCOc1cc(C(=O)N2CCCN(C)CC2)ccc1Nc1cc2c(cn1)N(C)C(=O)c1ccccc1N2C [Compound 8]
Clinical Score Erythema (0-4), AVG Score ([1]; Day 1 (baseline), 60 mpk BID): 0
Clinical Score Scaling (0-4), AVG Score ([1]; Day 1 (baseline), 60 mpk BID): 0
% Mean DORSAL BACK THICKNESS versus day 1, AVG ([1]; Day 3, 60 mpk BID): 33.49%
% Mean LEFT EAR THICKNESS [Control] versus day 1, AVG ([1]; Day 3, 60 mpk BID): −5.16%
% Mean RIGHT EAR THICKNESS [IMQ] versus day 1, AVG ([1]; Day 3, 60 mpk BID): 0.09%
Clinical Score Erythema (0-4), AVG Score ([1]; Day 3, 60 mpk BID): 1.25
Clinical Score Scaling (0-4), AVG Score ([1]; Day 3, 60 mpk BID): 0.5
% Mean DORSAL BACK THICKNESS versus day 1, AVG ([1]; Day 4, 60 mpk BID): 43.51%
% Mean LEFT EAR THICKNESS [Control] versus day 1, AVG ([1]; Day 4, 60 mpk BID): −6.51%
% Mean RIGHT EAR THICKNESS [IMQ] versus day 1, AVG ([1]; Day 4, 60 mpk BID): 5.74%
Clinical Score Erythema (0-4), AVG Score ([1]; Day 4, 60 mpk BID): 1.4
Clinical Score Scaling (0-4), AVG Score ([1]; Day 4, 60 mpk BID): 0.6
% Mean DORSAL BACK THICKNESS versus day 1, AVG ([1]; Day 6, 60 mpk BID): 74.47** %
% Mean LEFT EAR THICKNESS [Control] versus day 1, AVG ([1]; Day 6, 60 mpk BID): 1.15%
% Mean RIGHT EAR THICKNESS [IMQ] versus day 1, AVG ([1]; Day 6, 60 mpk BID): 36.67* %
Clinical Score Erythema (0-4), AVG Score ([1]; Day 6, 60 mpk BID): 2.15
Clinical Score Scaling (0-4), AVG Score ([1]; Day 6, 60 mpk BID): 2.8
% Mean DORSAL BACK THICKNESS versus day 1, AVG ([1]; Day 8, 60 mpk BID): 32.42^NS %
% Mean LEFT EAR THICKNESS [Control] versus day 1, AVG ([1]; Day 8, 60 mpk BID): −2.25%
% Mean RIGHT EAR THICKNESS [IMQ] versus day 1, AVG ([1]; Day 8, 60 mpk BID): 33.58** %
Clinical Score Erythema (0-4), AVG Score ([1]; Day 8, 60 mpk BID): 1.95
Clinical Score Scaling (0-4), AVG Score ([1]; Day 8, 60 mpk BID): 1.7

CCOc1cc(C(=O)N2CCC(N3CCCC3)CC2)ccc1Nc1cc2c(cn1)N(C)C(=O)c1ccccc1N2C [Compound 46, 3-(2-Ethoxy-4-(4-(pyrrolidin-1-yl)piperidine-1-carbonyl)phenylamino)-5,11-dimethyl-5H-benzo[e]pyrido[3,4-b][1,4]diazepin-10(11H)-one]
Kd (BAZ2B): > 20 µM
Kd (SMARCA4): > 20 µM
Clinical Score Erythema (0-4), AVG Score ([1]; Day 1 (baseline), 60 mpk BID): 0
Clinical Score Scaling (0-4), AVG Score ([1]; Day 1 (baseline), 60 mpk BID): 0
Clinical Score Erythema (0-4), AVG Score ([1]; Day 1 (baseline), 60 mpk QD): 0
Clinical Score Scaling (0-4), AVG Score ([1]; Day 1 (baseline), 60 mpk QD): 0
% Mean DORSAL BACK THICKNESS versus day 1, AVG ([1]; Day 3, 25 mpk BID): 29.55%
% Mean LEFT EAR THICKNESS [Control] versus day 1, AVG ([1]; Day 3, 25 mpk BID): −7.42%
% Mean RIGHT EAR THICKNESS [IMQ] versus day 1, AVG ([1]; Day 3, 25 mpk BID): 6.71%
% Mean DORSAL BACK THICKNESS versus day 1, AVG ([1]; Day 3, 60 mpk BID): 34.79%
% Mean LEFT EAR THICKNESS [Control] versus day 1, AVG ([1]; Day 3, 60 mpk BID): −8.07%
% Mean RIGHT EAR THICKNESS [IMQ] versus day 1, AVG ([1]; Day 3, 60 mpk BID): 3.35%
Clinical Score Erythema (0-4), AVG Score ([1]; Day 3, 60 mpk BID): 1.15
Clinical Score Scaling (0-4), AVG Score ([1]; Day 3, 60 mpk BID): 0.5
% Mean DORSAL BACK THICKNESS versus day 1, AVG ([1]; Day 3, 60 mpk QD): 41.12%
% Mean LEFT EAR THICKNESS [Control] versus day 1, AVG ([1]; Day 3, 60 mpk QD): −8.74%
% Mean RIGHT EAR THICKNESS [IMQ] versus day 1, AVG ([1]; Day 3, 60 mpk QD): 3.71%
Clinical Score Erythema (0-4), AVG Score ([1]; Day 3, 60 mpk QD): 1.05
Clinical Score Scaling (0-4), AVG Score ([1]; Day 3, 60 mpk QD): 0.5
% Mean DORSAL BACK THICKNESS versus day 1, AVG ([1]; Day 4, 25 mpk BID): 43.62%
% Mean LEFT EAR THICKNESS [Control] versus day 1, AVG ([1]; Day 4, 25 mpk BID): −5.56%
% Mean RIGHT EAR THICKNESS [IMQ] versus day 1, AVG ([1]; Day 4, 25 mpk BID): 12.03%
% Mean DORSAL BACK THICKNESS versus day 1, AVG ([1]; Day 4, 60 mpk BID): 45.39%
% Mean LEFT EAR THICKNESS [Control] versus day 1, AVG ([1]; Day 4, 60 mpk BID): −3.95%
% Mean RIGHT EAR THICKNESS [IMQ] versus day 1, AVG ([1]; Day 4, 60 mpk BID): 11.25%
Clinical Score Erythema (0-4), AVG Score ([1]; Day 4, 60 mpk BID): 1.3
Clinical Score Scaling (0-4), AVG Score ([1]; Day 4, 60 mpk BID): 0.55
% Mean DORSAL BACK THICKNESS versus day 1, AVG ([1]; Day 4, 60 mpk QD): 54.57%
% Mean LEFT EAR THICKNESS [Control] versus day 1, AVG ([1]; Day 4, 60 mpk QD): −7.01%
% Mean RIGHT EAR THICKNESS [IMQ] versus day 1, AVG ([1]; Day 4, 60 mpk QD): 9.53%
Clinical Score Erythema (0-4), AVG Score ([1]; Day 4, 60 mpk QD): 1.3
Clinical Score Scaling (0-4), AVG Score ([1]; Day 4, 60 mpk QD): 0.6
% Mean DORSAL BACK THICKNESS versus day 1, AVG ([1]; Day 6, 25 mpk BID): 84.46* %
% Mean LEFT EAR THICKNESS [Control] versus day 1, AVG ([1]; Day 6, 25 mpk BID): −1.35%
% Mean RIGHT EAR THICKNESS [IMQ] versus day 1, AVG ([1]; Day 6, 25 mpk BID): 37.60* %
% Mean DORSAL BACK THICKNESS versus day 1, AVG ([1]; Day 6, 60 mpk BID): 72.41** %
% Mean LEFT EAR THICKNESS [Control] versus day 1, AVG ([1]; Day 6, 60 mpk BID): 1.37%
% Mean RIGHT EAR THICKNESS [IMQ] versus day 1, AVG ([1]; Day 6, 60 mpk BID): 33.34** %
Clinical Score Erythema (0-4), AVG Score ([1]; Day 6, 60 mpk BID): 1.65
Clinical Score Scaling (0-4), AVG Score ([1]; Day 6, 60 mpk BID): 2.55
% Mean DORSAL BACK THICKNESS versus day 1, AVG ([1]; Day 6, 60 mpk QD): 90.77^NS %
% Mean LEFT EAR THICKNESS [Control] versus day 1, AVG ([1]; Day 6, 60 mpk QD): 8.65%
% Mean RIGHT EAR THICKNESS [IMQ] versus day 1, AVG ([1]; Day 6, 60 mpk QD): 38.11* %
Clinical Score Erythema (0-4), AVG Score ([1]; Day 6, 60 mpk QD): 2.25
Clinical Score Scaling (0-4), AVG Score ([1]; Day 6, 60 mpk QD): 3.05
% Mean DORSAL BACK THICKNESS versus day 1, AVG ([1]; Day 8, 25 mpk BID): 46.07^NS %
% Mean LEFT EAR THICKNESS [Control] versus day 1, AVG ([1]; Day 8, 25 mpk BID): −3.26%
% Mean RIGHT EAR THICKNESS [IMQ] versus day 1, AVG ([1]; Day 8, 25 mpk BID): 43.36** %
% Mean DORSAL BACK THICKNESS versus day 1, AVG ([1]; Day 8, 60 mpk BID): 41.36^NS %
% Mean LEFT EAR THICKNESS [Control] versus day 1, AVG ([1]; Day 8, 60 mpk BID): −1.92%
% Mean RIGHT EAR THICKNESS [IMQ] versus day 1, AVG ([1]; Day 8, 60 mpk BID): 40.66** %
Clinical Score Erythema (0-4), AVG Score ([1]; Day 8, 60 mpk BID): 1.3
Clinical Score Scaling (0-4), AVG Score ([1]; Day 8, 60 mpk BID): 1.45
% Mean DORSAL BACK THICKNESS versus day 1, AVG ([1]; Day 8, 60 mpk QD): 45.99^NS %
% Mean LEFT EAR THICKNESS [Control] versus day 1, AVG ([1]; Day 8, 60 mpk QD): 0.14%
% Mean RIGHT EAR THICKNESS [IMQ] versus day 1, AVG ([1]; Day 8, 60 mpk QD): 48.04** %
Clinical Score Erythema (0-4), AVG Score ([1]; Day 8, 60 mpk QD): 1.1
Clinical Score Scaling (0-4), AVG Score ([1]; Day 8, 60 mpk QD): 1.7
Kd (BRD9): > 20 µM

CCOc1cc(C(=O)N[C@H]2CC[C@H](O)CC2)ccc1Nc1cc2c(cn1)N(C)C(=O)c1ccccc1N2C [Compound T62]
Kd (BAZ2B): > 20 µM
Kd (SMARCA4): > 20 µM
Kd (BRD9): > 20 µM

From US20170008888A1 (KYORIN PHARMACEUTICAL CO., LTD., priority 2014, published 2017)
